{"source": "patent US8080580B2", "about": "“Dioxa-bicyclo[3.2.1]octane-2,3,4-triol derivatives” (Pfizer Inc., priority 2008, dated 2011)", "key": {"[1]": {"experiment": "PK satellite group of the in-vivo UGE assay (plasma by LC-MS/MS)", "details": "male, Sprague Dawley, rat plasma, oral gavage; for Tmax: read-out: Mean PK Parameters (n = 2) tmax", "protocol": "Male Sprague Dawley rats (˜300 g) were singly housed in metabolic cages for urine collection. […] Rats (n=2 to 5/group) received vehicle or compound by oral gavage. Dosing solutions were 0.03 mg/mL, 0.3 mg/mL, 0.9 mg/mL, 3 mg/mL, 9 mg/mL and 18 mg/mL for the 0.1 mg/kg, 1 mg/kg, 3 mg/kg, 10 mg/kg, 30 mg/kg and 60 mg/kg doses respectively. Dosing volume was 1 mL/300 g of body weight for all doses. […] The vehicle was 20% v/v PEG400 and 24% v/v hydroxypropyl beta cyclodextrin; HPBCD. Following oral administration, urine was collected for 24 hours. Glucose concentration was measured in urine by UV absorbance spectrophotometry at 340 nm using a Roche Hitachi 917 spectrophotometer (Diamond Diagnostics, Holliston, Mass.). The total amount of glucose excreted in the urine was calculated as the product of urine concentration and urine volume using the formula below: urinary glucose excreted (mg)/200 g body weight=urinary glucose concentration (mg/dL)×urine volume (dL)×200/rat body weight (g). […] Blood (0.1 mL) was collected from the PK satellite group animals at 1, 2, 4, 7, 24 hours postdose to obtain plasma and analyzed by LC-MS/MS."}, "Male Sprague Dawley rats": {"test_system": "Male Sprague Dawley rats", "experiment": "In-vivo assay: urinary glucose excretion in rats after oral gavage", "details": "rat, urine collected for 24 hours", "protocol": "Examples 1A and 4A were tested in rats to assess inhibition of glucose transport via urinary glucose excretion. Male Sprague Dawley rats (˜300 g) were singly housed in metabolic cages for urine collection. Rats had access to standard laboratory chow and water ad libitum. Rats (n=2 to 5/group) received vehicle or compound by oral gavage. Dosing solutions were 0.03 mg/mL, 0.3 mg/mL, 0.9 mg/mL, 3 mg/mL, 9 mg/mL and 18 mg/mL for the 0.1 mg/kg, 1 mg/kg, 3 mg/kg, 10 mg/kg, 30 mg/kg and 60 mg/kg doses respectively. Dosing volume was 1 mL/300 g of body weight for all doses. […] The vehicle was 20% v/v PEG400 and 24% v/v hydroxypropyl beta cyclodextrin; HPBCD. Following oral administration, urine was collected for 24 hours. Glucose concentration was measured in urine by UV absorbance spectrophotometry at 340 nm using a Roche Hitachi 917 spectrophotometer (Diamond Diagnostics, Holliston, Mass.). The total amount of glucose excreted in the urine was calculated as the product of urine concentration and urine volume using the formula below: urinary glucose excreted (mg)/200 g body weight=urinary glucose concentration (mg/dL)×urine volume (dL)×200/rat body weight (g). […] Blood (0.1 mL) was collected from the PK satellite group animals at 1, 2, 4, 7, 24 hours postdose to obtain plasma and analyzed by LC-MS/MS."}}, "note": "Like-named read-outs stand apart in the source and are kept apart here."}
{"smiles": "COc1ccc(Cc2cc([C@]34OC[C@](CO)(O3)[C@@H](O)[C@H](O)[C@H]4O)ccc2C)cc1", "note": "[Example 1A, (1S,2S,3S,4R,5S)-1-hydroxymethyl-5-[3-(4-methoxy-benzyl)-4-methyl-phenyl]-6,8-dioxa-bicyclo[3.2.1]octane-2,3,4-triol]", "values": [{"measurement": "AUC(0-t)", "setting": "[1]; 10 mg/kg", "result": 6630, "unit": "ng·h/mL"}, {"measurement": "Cmax", "setting": "[1]; 10 mg/kg", "result": 1260, "unit": "ng/mL"}, {"measurement": "Tmax", "setting": "[1]; 10 mg/kg", "result": 1, "unit": "h"}, {"measurement": "Mean UGE (mg/200 g of body weight) ± SEM (n = 5)", "setting": "Male Sprague Dawley rats; 10 mg/kg", "result": "2049 ± 382.2 mg/200 g of body weight"}]}
{"smiles": "CCOc1ccc(Cc2cc([C@]34OC[C@](CO)(O3)[C@@H](O)[C@H](O)[C@H]4O)ccc2Cl)cc1", "note": "[Example 4A, (1S,2S,3S,4R,5S)-5-[4-chloro-3-(4-ethoxy-benzyl)-phenyl]-1-hydroxymethyl-6,8-dioxa-bicyclo[3.2.1]octane-2,3,4-triol]", "values": [{"measurement": "AUC(0-t)", "setting": "[1]; 0.1 mg/kg", "result": 188, "unit": "ng·h/mL"}, {"measurement": "Cmax", "setting": "[1]; 0.1 mg/kg", "result": 43.4, "unit": "ng/mL"}, {"measurement": "AUC(0-t)", "setting": "[1]; 1 mg/kg", "result": 2000, "unit": "ng·h/mL"}, {"measurement": "Cmax", "setting": "[1]; 1 mg/kg", "result": 372, "unit": "ng/mL"}, {"measurement": "Tmax", "setting": "[1]; 1 mg/kg", "result": 1, "unit": "h"}, {"measurement": "AUC(0-t)", "setting": "[1]; 3 mg/kg", "result": 7080, "unit": "ng·h/mL"}, {"measurement": "Cmax", "setting": "[1]; 3 mg/kg", "result": 1320, "unit": "ng/mL"}, {"measurement": "Tmax", "setting": "[1]; 3 mg/kg", "result": 1, "unit": "h"}, {"measurement": "AUC(0-t)", "setting": "[1]; 10 mg/kg", "result": 26400, "unit": "ng·h/mL"}, {"measurement": "Cmax", "setting": "[1]; 10 mg/kg", "result": 3100, "unit": "ng/mL"}, {"measurement": "Tmax", "setting": "[1]; 10 mg/kg", "result": 2.5, "unit": "h"}, {"measurement": "AUC(0-t)", "setting": "[1]; 30 mg/kg", "result": 10700, "unit": "ng·h/mL"}, {"measurement": "Cmax", "setting": "[1]; 30 mg/kg", "result": 10500, "unit": "ng/mL"}, {"measurement": "Tmax", "setting": "[1]; 30 mg/kg", "result": 1, "unit": "h"}, {"measurement": "AUC(0-t)", "setting": "[1]; 60 mg/kg", "result": 233000, "unit": "ng·h/mL"}, {"measurement": "Cmax", "setting": "[1]; 60 mg/kg", "result": 25300, "unit": "ng/mL"}, {"measurement": "Tmax", "setting": "[1]; 60 mg/kg", "result": 2, "unit": "h"}, {"measurement": "Mean UGE (mg/200 g of body weight) ± SEM (n = 5)", "setting": "Male Sprague Dawley rats; 0.1 mg/kg", "result": "389.0 ± 62.54 mg/200 g of body weight"}, {"measurement": "Mean UGE (mg/200 g of body weight) ± SEM (n = 5)", "setting": "Male Sprague Dawley rats; 1 mg/kg", "result": "1519 ± 52.02 mg/200 g of body weight"}, {"measurement": "Mean UGE (mg/200 g of body weight) ± SEM (n = 5)", "setting": "Male Sprague Dawley rats; 3 mg/kg", "result": "1937 ± 101.1 mg/200 g of body weight"}, {"measurement": "Mean UGE (mg/200 g of body weight) ± SEM (n = 5)", "setting": "Male Sprague Dawley rats; 10 mg/kg", "result": "2145 ± 132.3 mg/200 g of body weight"}, {"measurement": "Mean UGE (mg/200 g of body weight) ± SEM (n = 5)", "setting": "Male Sprague Dawley rats; 30 mg/kg", "result": "2554 ± 141.1 mg/200 g of body weight"}, {"measurement": "Mean UGE (mg/200 g of body weight) ± SEM (n = 5)", "setting": "Male Sprague Dawley rats; 60 mg/kg", "result": "2437 ± 116.7 mg/200 g of body weight"}]}
